pIC50: −log10 of the molar value.
What was measured:
PIK3CD (Human) = PIK3CD (Human) (UniProt O00329); test: Assessment of PIK3CD Kinase Activity
PIK3CG (human) = PIK3CG (human) (UniProt P48736); test: Assessment of PIK3CG Kinase Activity
PIK3CA (human) = PIK3CA (human) (UniProt P42336); test: Assessment of PIK3CA Kinase Activity
Chain of PIK3CA (human) (P42336 whole entry, looked up): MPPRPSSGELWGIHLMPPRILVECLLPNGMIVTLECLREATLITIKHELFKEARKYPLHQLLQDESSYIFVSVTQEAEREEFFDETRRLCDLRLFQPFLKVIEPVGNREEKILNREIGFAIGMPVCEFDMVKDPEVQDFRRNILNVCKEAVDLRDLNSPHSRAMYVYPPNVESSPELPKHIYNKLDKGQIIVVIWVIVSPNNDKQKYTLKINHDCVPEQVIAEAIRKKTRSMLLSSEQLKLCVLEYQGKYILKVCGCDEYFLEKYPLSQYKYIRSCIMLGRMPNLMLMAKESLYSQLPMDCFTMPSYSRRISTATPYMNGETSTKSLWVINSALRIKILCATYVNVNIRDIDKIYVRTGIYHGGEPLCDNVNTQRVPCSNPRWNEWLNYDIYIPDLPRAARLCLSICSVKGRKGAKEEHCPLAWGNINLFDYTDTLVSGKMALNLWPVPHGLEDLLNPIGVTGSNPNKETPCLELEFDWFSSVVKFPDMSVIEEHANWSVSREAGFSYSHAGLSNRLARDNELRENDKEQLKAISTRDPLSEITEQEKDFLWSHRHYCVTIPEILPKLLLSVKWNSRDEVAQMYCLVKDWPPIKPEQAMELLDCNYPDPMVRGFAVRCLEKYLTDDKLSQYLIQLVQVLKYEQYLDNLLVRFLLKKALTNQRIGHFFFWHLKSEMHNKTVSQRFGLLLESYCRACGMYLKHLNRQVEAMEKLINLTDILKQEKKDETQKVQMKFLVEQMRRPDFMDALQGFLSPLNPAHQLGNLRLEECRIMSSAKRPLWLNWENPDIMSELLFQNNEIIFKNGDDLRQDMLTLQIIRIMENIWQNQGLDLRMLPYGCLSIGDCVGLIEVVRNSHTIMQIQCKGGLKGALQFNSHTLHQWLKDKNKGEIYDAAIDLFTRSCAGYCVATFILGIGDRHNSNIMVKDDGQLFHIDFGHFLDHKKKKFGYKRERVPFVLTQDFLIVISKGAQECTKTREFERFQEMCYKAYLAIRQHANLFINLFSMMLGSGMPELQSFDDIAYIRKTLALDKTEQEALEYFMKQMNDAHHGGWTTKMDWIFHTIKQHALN

Chain of PIK3CG (human) (P48736 whole entry, looked up): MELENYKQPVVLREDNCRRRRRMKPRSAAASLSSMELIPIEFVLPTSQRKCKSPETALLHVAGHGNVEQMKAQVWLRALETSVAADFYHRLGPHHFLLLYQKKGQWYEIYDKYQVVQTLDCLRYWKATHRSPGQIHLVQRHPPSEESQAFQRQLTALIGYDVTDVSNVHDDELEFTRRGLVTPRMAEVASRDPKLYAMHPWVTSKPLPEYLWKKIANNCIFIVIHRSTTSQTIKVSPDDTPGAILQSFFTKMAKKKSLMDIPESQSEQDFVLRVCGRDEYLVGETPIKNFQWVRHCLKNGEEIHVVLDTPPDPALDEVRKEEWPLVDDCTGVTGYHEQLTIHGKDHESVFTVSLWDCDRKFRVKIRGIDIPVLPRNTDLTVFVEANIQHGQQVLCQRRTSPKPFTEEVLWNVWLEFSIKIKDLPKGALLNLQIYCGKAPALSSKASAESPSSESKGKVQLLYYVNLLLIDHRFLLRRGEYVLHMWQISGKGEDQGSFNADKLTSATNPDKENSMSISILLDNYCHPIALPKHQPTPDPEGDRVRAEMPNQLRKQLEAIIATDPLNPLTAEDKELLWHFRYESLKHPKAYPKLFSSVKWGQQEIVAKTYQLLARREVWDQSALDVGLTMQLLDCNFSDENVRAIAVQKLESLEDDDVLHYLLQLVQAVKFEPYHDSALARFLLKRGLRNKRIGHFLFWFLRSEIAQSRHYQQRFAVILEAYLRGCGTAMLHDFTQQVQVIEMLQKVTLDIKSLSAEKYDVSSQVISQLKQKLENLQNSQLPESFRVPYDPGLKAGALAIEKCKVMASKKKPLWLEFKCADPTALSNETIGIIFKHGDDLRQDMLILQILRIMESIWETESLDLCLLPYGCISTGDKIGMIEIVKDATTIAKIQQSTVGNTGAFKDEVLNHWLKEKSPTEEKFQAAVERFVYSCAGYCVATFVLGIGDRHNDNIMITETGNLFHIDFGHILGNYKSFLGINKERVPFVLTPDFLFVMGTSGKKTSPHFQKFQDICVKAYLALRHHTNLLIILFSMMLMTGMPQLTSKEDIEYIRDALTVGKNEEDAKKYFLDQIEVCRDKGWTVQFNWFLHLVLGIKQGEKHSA
Chain of PIK3CD (Human) (O00329 whole entry, looked up): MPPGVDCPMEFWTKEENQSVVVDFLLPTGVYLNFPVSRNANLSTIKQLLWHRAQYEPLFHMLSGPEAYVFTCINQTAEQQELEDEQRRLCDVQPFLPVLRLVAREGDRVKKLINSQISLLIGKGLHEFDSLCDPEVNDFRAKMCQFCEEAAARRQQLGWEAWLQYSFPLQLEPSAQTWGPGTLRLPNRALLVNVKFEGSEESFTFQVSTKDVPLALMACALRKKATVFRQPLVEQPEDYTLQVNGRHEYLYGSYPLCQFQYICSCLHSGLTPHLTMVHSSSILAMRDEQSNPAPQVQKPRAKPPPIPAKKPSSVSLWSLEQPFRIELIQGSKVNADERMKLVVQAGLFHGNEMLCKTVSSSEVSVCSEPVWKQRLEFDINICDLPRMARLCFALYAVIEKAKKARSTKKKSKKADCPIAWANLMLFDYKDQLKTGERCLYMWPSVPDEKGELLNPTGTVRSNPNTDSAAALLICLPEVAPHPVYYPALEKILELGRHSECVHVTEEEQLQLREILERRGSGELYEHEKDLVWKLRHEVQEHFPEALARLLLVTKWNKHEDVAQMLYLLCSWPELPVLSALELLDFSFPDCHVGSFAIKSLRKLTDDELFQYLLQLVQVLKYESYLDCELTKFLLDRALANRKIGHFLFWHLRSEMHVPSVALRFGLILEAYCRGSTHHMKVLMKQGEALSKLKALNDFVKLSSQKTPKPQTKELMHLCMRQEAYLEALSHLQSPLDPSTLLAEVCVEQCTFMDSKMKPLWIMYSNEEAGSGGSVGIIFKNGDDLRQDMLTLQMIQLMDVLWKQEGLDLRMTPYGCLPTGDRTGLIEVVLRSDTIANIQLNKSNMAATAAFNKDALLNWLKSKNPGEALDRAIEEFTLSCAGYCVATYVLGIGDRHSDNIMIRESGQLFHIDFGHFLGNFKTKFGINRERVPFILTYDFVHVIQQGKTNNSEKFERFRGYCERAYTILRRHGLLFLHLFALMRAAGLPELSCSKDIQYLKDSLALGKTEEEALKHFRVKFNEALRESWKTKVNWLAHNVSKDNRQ

| SMILES | pIC50 (PIK3CD (Human)) | pIC50 (PIK3CG (human)) | pIC50 (PIK3CA (human)) |
| --- | --- | --- | --- |
| Cc1nc(NC(=O)NCCS(C)(=O)=O)sc1-c1ccc(F)c(S(C)(=O)=O)c1 | 6.20 | 6.75 | 6.66 |
| Cc1nc(NC(=O)NCC(=O)N(C)C)sc1-c1ccc(S(C)(=O)=O)c(F)c1 | 7.55 | 7.92 | 8.05 |
| Cc1nc(NC(=O)NCCc2cn(C(C)C)cn2)sc1-c1ccc(S(C)(=O)=O)c(F)c1 | 6.38 | 7.36 | 5.82 |
| CCn1cnc(CCNC(=O)Nc2nc(C)c(-c3ccc(S(C)(=O)=O)c(F)c3)s2)c1 | 5.67 | 7.42 | 6.03 |
| CCc1cnc(CCNC(=O)Nc2nc(C)c(-c3ccc(S(C)(=O)=O)c(-n4ccnc4)c3)s2)o1 | 6.77 | 7.49 | 6.81 |
| Cc1nc(NC(=O)NCCC(=O)OC(C)(C)C)sc1-c1ccc(S(C)(=O)=O)c(F)c1 | 6.20 | 7.80 | 5.52 |
| Cc1nc(NC(=O)N2CC(C#N)C2)sc1-c1ccc(S(C)(=O)=O)c(F)c1 |  | 6.71 | 6.72 |
| Cc1nc(NC(=O)NCCC(=O)OC(C)(C)C)sc1-c1ccc(S(C)(=O)=O)c(C(F)(F)F)c1 | 5.58 | 6.67 | 5.69 |
| CCc1nnc(CCNC(=O)Nc2nc(C)c(-c3ccc(S(C)(=O)=O)c(F)c3)s2)o1 | 5.42 | 7.13 | 6.08 |
| Cc1nc(NC(=O)NCCO)sc1-c1ccc(S(C)(=O)=O)c(C(F)(F)F)c1 | 6.74 | 7.33 | 7.46 |

— the Kinase Knowledgebase extract (Sharma et al. 2016)
